Data on two molecules can be found in patent US10143747B2, “Breast cancer therapeutics” (IMBA—INSTITUT FÜR MOLEKULARE BIOTECHNOLOGIE GMBH, priority 2010, dated 2018).

In this test the test system is mammary epithelial cells. Put plainly: Epithelial proliferation in mammary glands by in situ Ki67 immunostaining. Format: in vivo, mouse. As to the method: a,b, Induction of RANKL expression by the progesterone-derivative MPA. Nulliparous wild type females were s.c. implanted with slow-release MPA pellets or treated with surgery sham. a, RANKL mRNA was determined in purified mammary epithelial cells by qRT-PCR three days after implantation. Data are shown as fold change compared to sham treatment (+/−sem) (n=3). b, In situ […] immunostaining of progesterone receptor (PR, red) and RANKL (green) in mammary epithelial cells after 3d MPA treatment. c, Induction of soluble RANKL protein assayed on isolated mammary gland epithelial cells from control, but not in prolactin receptor mutant (PRL-R KO) females on day 3 after s.c. MPA implantation. Mammary glands from sham operated control litter-mates and PRL-R KO females are shown as controls. d, Epithelial proliferation in mammary glands of control littermates and RANK^Δmam females 3 days after sham treatment and MPA implantation. Proliferation was determined by in situ Ki67 immunostaining. e,f, Marked increase of the stem cell-enriched CD24^+CD49^high population (MaSC) in MPA-treated mammary glands in control but not in RANK^Δmam mammary glands. e, Representative FACS profiles showing CD24 and CD49 expression of lineage negative (CD31^− (endothelial cells) CD45^− (hematopoietic cells) […] (erythroid cells)) of mammary MaSCs from MPA- or sham-treated 8-week old virgin females. f, Quantification of MaSC-enriched CD24^+CD49^high population from mammary glands of MPA- or sham-treated virgin RANK^Δmam and littermate control females. For all MaSCs experiments mice were treated with MPA for 3 days. n=4 per group+/−sem. *P<0.05; ***P<0.001 (Student's t-test).
At least 1000 mammary gland epithelial cells were counted per mouse. n=3 mice per genotype. **P<0.005; ***P<0.001 (Student's t-test). b, Quantification of in situ Ki67 immunostained cells per acinus from mammary glands of control littermate and RANK^Δmam females on day 3 after MPA s.c. implantation. […] At least 1000 cells were counted per mammary gland. n=3 per genotype. In b, and c, data are shown as percentage of acini/ducts with low (<20% of epithelial cells are Ki67^+), medium (20-80% of epithelial cells are Ki67^+) and high (>80% of epithelial cells are Ki67^+) numbers of proliferating cells+/−sem. ***P<0.001; *P<0.03 (Student's t-test). d, Epithelial proliferation in mammary glands of control littermates and RANK^Δmam females 1 day after i.p. injection of PBS or RANKL (1 μg). Proliferation was determined in situ Ki67 immunostaining. Magnifications×40. e, Quantification of epithelial proliferation 1 day after i.p. injection of PBS or RANKL (1 μg). Mean percentages of Ki67 positive cells+/−sem are shown. *P<0.03; n=5 (Student's t-test).
For histological analysis, 5 μm sections were cut and stained with hematoxylin and eosin (H&E). Whole-mount staining of mammary glands was performed as described^8. For immunoperoxidase staining paraffin-embedded sections were […] and antigenic epitopes exposed using a 10 mM citrate buffer or microwaving. […] Histomorphometric indices (proliferation and apoptosis) were calculated as the number of positive epithelial cells divided by the total number of epithelial cells, with no fewer than 1000 nuclei for Ki67 stainings and no fewer than 5000 cells for active Caspase 3 staining counted per section. […]

In the case of `CC(=O)O[C@]1(C(C)=O)CC[C@H]2[C@@H]3C[C@H](C)C4=CC(=O)CC[C@]4(C)[C@H]3CC[C@@]21C` [MPA, medroxyprogesterone acetate], the “MPA-induced proliferation of mammary epithelial cells” value (RANKΔmam females, 3 days after MPA implantation) is “significantly reduced”. Where the note is “RANKΔmam females, day 3 after MPA s.c. implantation”, the “acini with very low proliferation rates (Ki67)” value is reported as “more than 60%”. Besides, the “acini with medium to high proliferation (Ki67)” value (control females, day 3 after MPA s.c. implantation) is about 80%. Moreover, where the note is “wild type, 3 days after MPA implantation”, the “proliferation of mammary epithelial cells” value is reported as “triggers massive proliferation”.

B1: RANKL: recombinant RANKL protein, ligand of RANK, used as stimulus (1 μg/ml or 1 μg i.p.) (protein, UniProt O35235 139-316, looked up)
Tumor necrosis factor ligand …: FSGAPAMMEGSWLDVAQRGKPEAQPFAHLTINAASIPSGSHKVTLSSWYHDRGWAKISNMTLSNGKLRVNQDGFYYLYANICFRHHETSGSVPTDYLQLMVYVVKTSIKIPSSHNLMKGGSTKNWSGNSEFHFYSINVGGFFKLRAGEEISIQVSNPSLLDPDQDATYFGAFKVQDID
With B1, the “proliferation of mammary gland epithelial cells” value (nulliparous females, 1 day after i.p. injection of RANKL (1 μg)) is listed as “triggered proliferation of mammary gland epithelial cells via RANK”.
